Measurements reported in article PMC9599246 (2022).

Tested on: fl-2CS1 (DNA, aptamer) GAGAGGTCAGATGATGCACTAGGGTTACGAGACCACGCGGTACCCTATGCGTGCTAC
Assay: ITC
Conditions: none added; 0.1 M Tris-HCl pH 7.4, 1% DMSO, 25 °C; 125 μM toxin in syringe, 5 μM aptamer in cell

SMILES: CCCC[C@@H](C)[C@@H](OC(=O)C[C@@H](CC(=O)O)C(=O)O)[C@H](C[C@@H](C)C[C@H](O)CCCC[C@@H](O)C[C@H](O)[C@H](C)N)OC(=O)C[C@@H](CC(=O)O)C(=O)O
- binding: no

SMILES: C[C@@H]1Cc2c(Cl)cc(C(=O)N[C@@H](Cc3ccccc3)C(=O)O)c(O)c2C(=O)O1
- binding: no
